Experimental data taken from patent US6991937B2, “Urine cystine quantitation and supersaturation assay” (Litholink Corporation, priority 2001, dated 2006).
Marks after values point to notes of the source that are not given here.

How the values were obtained:
[1] = Dissolution of solid phase cystine by cystine binding drugs in normal urine; design: species or system human; settings: for molar proportion of cystine dissolved per drug, urine: normal urine; for Regression slope of cystine uptake on drug molarity, URINE: ten normal urine samples, 48 hours, 37° C.
Experimental: (§1) Using the same incubation buffer and cystine-dissolving agent systems as for the initial solid phase dissolution assay given in Example 1, increasing amounts of D-penicillamine, tiopronin, or captopril were added to 25 ml aliquots of the incubation buffer. A fixed amount of cystine was added; for tiopronin and D-penicillamine, about 40 mg, and for captopril about 20 mg. […] Incubation was carried out as in Example 1. After 48 hours, the pellet and supernatant were separated by centrifugation, the pellet was dissolved in 25 ml of cystine-dissolving agent, an alkalinizing buffer of 0.1 M sodium carbonate, pH 9.9, (Sigma Aldrich Corp, Catalog # S-7795), to form a final cystine solution. Cystine concentration was determined both in the supernatant and the final cystine solution according to the procedure given in Example 3. This same protocol was repeated using the ten normal urine samples employed in the basic solid phase dissolution study described in Example 1.
(§2) Cystine concentrations in either the incubation buffer or normal urine after removal of the residual solid phase cystine, or the final cystine solution after the dissolution of the solid phase cystine in a cystine-dissolving agent as shown in Example 1 and 2 were measured using the modified cyanide-nitroprusside method for quantifying urinary cystine concentration as reported by Nakagawa and Coe (Nakagawa, Y. and Coe, F. 1999. Clin Chim Acta 289:57–68). A 100 microliter aliquot was mixed with 400 microliters of water and 1 milliliter of 0.01 M sodium phosphate buffer containing 0.15 mol/liter NaCl, pH 7.3 (PBS). After adding 300 microliters of 10% NaCN aqueous solution (w/v), the sample was incubated for twenty minutes at room temperature. Color was developed by adding 100 microliters of 20% sodium nitroprusside aqueous solution (w/v). Within 20 seconds of the sodium nitroprusside addition, color intensity was then measured at 521 nm using a Beckman spectrophotometer (model DU 640), and cystine concentration was calculated by comparison to a standard curve which was prepared with each assay.
(§3) Routine means and t tests and linear regression analysis used standard statistical software (Systat, SPSS Corp., Chicago, Ill.). Differences in slopes of uptake with drugs were assessed by multivariate analysis in which cystine uptake was the dependent variable; drug molarity, the independent variable; either buffer vs urine or drug type, the categorical variable; and probability of homogeneity of slopes between the groups, defined by the categorical variable tested. Simple regression analysis was used to obtain the actual values of the slopes.

[2] = Dissolution of solid phase cystine by cystine binding drugs in incubation buffer; settings: for Regression slope of cystine uptake on drug molarity, BUFFER: incubation buffer, 48 hours, 37° C.
Experimental: as §1, §2, §3

[3] = general statement; cited from earlier work

SMILES | molar proportion of cystine dissolved per drug, urine [1] [mole/mole] | Regression slope of cystine uptake on drug molarity, URINE [1] | molar proportion of cystine dissolved per drug, buffer [2] [mole/mole] | Regression slope of cystine uptake on drug molarity, BUFFER [2] | solubility of cystine in average normal urine [3] [µg/mL]
CC(C)(S)[C@@H](N)C(=O)O [D-penicillamine] | 0.21±0.008 | 0.21 ± 0.01 | 0.24±0.01 | 0.25 ± 0.01 | 
C[C@H](CS)C(=O)N1CCC[C@H]1C(=O)O [captopril] | 0.35±0.01 | 0.35 ± 0.01# | 0.36±0.04 | 0.36 ± 0.04# | 
N[C@@H](CSSC[C@H](N)C(=O)O)C(=O)O [cystine] |  |  |  |  | 200 to 400
CC(S)C(=O)NCC(=O)O (stereo not shown) [tiopronin] | 0.36±0.01 | 0.36 ± 0.01 | 0.41±0.02 | 0.41 ± 0.02# | 
